Several values for one entry are separate records, joined by “and”; a condition that tells them apart may be missing. Equal entries are not always repeated. Inconclusive results and toxic doses are left out. How the source made its calls: active means survival T/C of 150% or more; inactive means T/C below 125% in these data.
Test system: P388 leukemia ip, CD2F1 mice, survival T/C
Test: NCI In Vivo Anticancer Drug Screen. Data for tumor model P388 Leukemia (intraperitoneal) in CD2F1 (CDF1) mice
Settings: endpoint: median survival time, higher = longer survival
How it was run: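 Mice carrying the transplanted tumor received test compound or vehicle. Survival was recorded in each group, and the value is the treated-group measurement divided by that of the vehicle-treated control group.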

[1] = dose: 60.0 mg/kg/injection, schedule: Q01DX005 (ip), vehicle: Klucel (hydroxypropylcellulose) (HPC)
[2] = dose: 120.0 mg/kg/injection, schedule: Q01DX005 (ip), vehicle: Klucel (hydroxypropylcellulose) (HPC)
[3] = dose: 240.0 mg/kg/injection, schedule: Q01DX005 (ip), vehicle: Klucel (hydroxypropylcellulose) (HPC)
[4] = dose: 60.0 mg/kg/injection, schedule: Q01DX005 (ip), vehicle: saline with Tween-80
[5] = dose: 120.0 mg/kg/injection, schedule: Q01DX005 (ip), vehicle: saline with Tween-80
[6] = dose: 240.0 mg/kg/injection, schedule: Q01DX005 (ip), vehicle: saline with Tween-80
[7] = dose: 100.0 mg/kg/injection, schedule: Q04DX002 (ip), vehicle: saline with Tween-80
[8] = dose: 200.0 mg/kg/injection, schedule: Q04DX002 (ip), vehicle: saline with Tween-80
[9] = dose: 400.0 mg/kg/injection, schedule: Q04DX002 (ip), vehicle: saline with Tween-80
[10] = dose: 12.5 mg/kg/injection, schedule: Q01DX009 (ip), vehicle: saline
[11] = dose: 25.0 mg/kg/injection, schedule: Q01DX009 (ip), vehicle: saline
[12] = dose: 50.0 mg/kg/injection, schedule: Q01DX009 (ip), vehicle: saline
[13] = dose: 100.0 mg/kg/injection, schedule: Q01DX009 (ip), vehicle: saline

Measured: T/C

COC1OC2COc3ccccc3OC2C(NC#N)C1OC (stereo unspecified)
inactive: [1] 112 % of control | [2] 108 % of control | [3] 107 % of control

CCCCN(CCCC)CC(N=O)c1cc(-c2ccc(Cl)c(Cl)c2)nc2c(Cl)cc(Cl)cc12 (stereo unspecified)
inactive: dose: 50.0 mg/kg/injection, schedule: Q01DX005 (ip), vehicle: saline with Tween-80 108 % of control | dose: 100.0 mg/kg/injection, schedule: Q01DX005 (ip), vehicle: saline with Tween-80 111 % of control | dose: 200.0 mg/kg/injection, schedule: Q01DX005 (ip), vehicle: saline with Tween-80 107 % of control

CSc1nc(C#N)c(N)s1
inactive: [4] 101 % of control | [5] 95 % of control | [6] 95 % of control

COC(=O)c1nc(SC)[nH]c1CC#N
inactive: [7] 108 % of control | [8] 98 % of control | [9] 99 % of control

CNC(=O)C(O)c1c(-c2ccccc2)c(-c2ccccc2)c2n1CCC2 (stereo unspecified)
inactive: [1] 96 % of control | [2] 89 % of control | [3] 86 % of control

CC1(C)OCC(C2OC3OC(C)(C)OC3C2=C(Br)Br)O1 (stereo unspecified)
inactive: [4] 91 % of control | [5] 100 % of control | [6] 89 % of control

CCN(CC)CCCCCNc1cc(Cl)c(Cl)cc1[N+](=O)[O-]
inactive: [10] 99 % of control | [11] 95 % of control | [12] 107 % of control

CNc1ncc2c(n1)N(C)C(=O)/C(=C\C(=O)OC)N2
inactive: dose: 40.0 mg/kg/injection, schedule: Q01DX009 (ip), vehicle: saline with Tween-80 101 % of control | dose: 80.0 mg/kg/injection, schedule: Q01DX009 (ip), vehicle: saline with Tween-80 93 % of control | dose: 160.0 mg/kg/injection, schedule: Q01DX009 (ip), vehicle: saline with Tween-80 99 % of control

OC1C=C(c2ccccc2)C(O)(c2ccccc2)C1 (stereo unspecified)
inactive: dose: 50.0 mg/kg/injection, schedule: Q01DX009 (ip), vehicle: Klucel (hydroxypropylcellulose) (HPC) 100 % of control | dose: 100.0 mg/kg/injection, schedule: Q01DX009 (ip), vehicle: Klucel (hydroxypropylcellulose) (HPC) 100 % of control | dose: 200.0 mg/kg/injection, schedule: Q01DX009 (ip), vehicle: Klucel (hydroxypropylcellulose) (HPC) 92 % of control

CC12CC(c3ccoc3)OC(=O)C1CCC13COC(=O)C1=CCCC32 (stereo unspecified)
inactive: dose: 0.25 mg/kg/injection, schedule: Q01DX009 (ip), vehicle: Klucel (hydroxypropylcellulose) (HPC) 96 % of control | dose: 0.5 mg/kg/injection, schedule: Q01DX009 (ip), vehicle: Klucel (hydroxypropylcellulose) (HPC) 88 % of control | dose: 1.0 mg/kg/injection, schedule: Q01DX009 (ip), vehicle: Klucel (hydroxypropylcellulose) (HPC) 90 % of control | dose: 2.0 mg/kg/injection, schedule: Q01DX009 (ip), vehicle: Klucel (hydroxypropylcellulose) (HPC) 114 % of control

COc1cc(C(Nc2ncccn2)c2cc3c(cc2OC(C)=O)OCO3)cc(OC)c1OC(C)=O (stereo unspecified)
inactive: [4] 105 % of control | [5] 100 % of control | [6] 99 % of control

CN1C(=O)CC2(C)C1=CCc1scnc12 (stereo unspecified)
inactive: dose: 7.5 mg/kg/injection, schedule: Q01DX005 (ip), vehicle: saline with Tween-80 94 % of control | dose: 15.0 mg/kg/injection, schedule: Q01DX005 (ip), vehicle: saline with Tween-80 99 % of control | dose: 30.0 mg/kg/injection, schedule: Q01DX005 (ip), vehicle: saline with Tween-80 99 % of control

Cc1nc([Se]c2nc(C)n3ccncc23)c2cnccn12
inactive: dose: 37.5 mg/kg/injection, schedule: Q01DX001 (ip), vehicle: saline with Tween-80 95 % of control | dose: 75.0 mg/kg/injection, schedule: Q01DX001 (ip), vehicle: saline with Tween-80 100 % of control | dose: 150.0 mg/kg/injection, schedule: Q01DX001 (ip), vehicle: saline with Tween-80 100 % of control

C=Cn1ccnc1
inactive: dose: 6.25 mg/kg/injection, schedule: Q01DX009 (ip), vehicle: saline 100 % of control | [10] 103 % of control and 123 % of control | [11] 103 % of control | [12] 108 % of control and 113 % of control and 114 % of control | [13] 91 % of control

CC(=O)OCC(=O)[C@@]1(O)CC[C@H]2[C@@H]3C[C@H](F)C4=CC(=O)CC[C@]4(C)[C@H]3[C@@H](O)C[C@@]21C
inactive: dose: 100.0 mg/kg/injection, schedule: Q04DX003 (ip), vehicle: saline 104 % of control | dose: 200.0 mg/kg/injection, schedule: Q04DX003 (ip), vehicle: saline 100 % of control | dose: 400.0 mg/kg/injection, schedule: Q04DX003 (ip), vehicle: saline 95 % of control

CC(C)(C)c1ccc(C(=O)n2c(=S)oc3ccc(Cl)cc32)cc1
inactive: [4] 96 % of control | [5] 95 % of control | [6] 94 % of control

Cc1cc(OCCCCOc2ccc(C#N)cc2)ccc1[N+](=O)[O-]
inactive: [4] 96 % of control | [5] 90 % of control | [6] 88 % of control

COC(=O)/C(=C/c1ccccc1)N=[N+]=[N-]
inactive: [4] 107 % of control | [5] 110 % of control | [6] 117 % of control

O=C(CSc1nnc(-c2ccc(Cl)cc2)s1)Nc1nccs1
inactive: [4] 89 % of control | [5] 89 % of control | [6] 89 % of control

c1ccc(-c2nn(-c3ccccc3)[n+](-c3ccccc3-c3ccccc3)n2)cc1
inactive: dose: 5.0 mg/kg/injection, schedule: Q01DX009 (ip), vehicle: saline 109 % of control and 114 % of control | dose: 10.0 mg/kg/injection, schedule: Q01DX009 (ip), vehicle: saline 120 % of control | dose: 20.0 mg/kg/injection, schedule: Q01DX009 (ip), vehicle: saline 121 % of control

N#C/C(=C/c1cc(Br)c2c(c1)OCO2)C(N)=O
inactive: [7] 100 % of control | [8] 98 % of control | [9] 97 % of control

COc1ccc(/C=C2/C(=O)ON=C2C)cc1
inactive: [4] 108 % of control | [5] 110 % of control | [6] 109 % of control

CN1CCC(CN2c3ccccc3Sc3ccccc32)CC1
inactive: dose: 25.0 mg/kg/injection, schedule: Q01DX009 (ip), vehicle: saline with Tween-80 95 % of control | dose: 25.0 mg/kg/injection, schedule: Q04DX003 (ip), vehicle: saline with Tween-80 100 % of control | dose: 50.0 mg/kg/injection, schedule: Q01DX009 (ip), vehicle: saline with Tween-80 100 % of control | dose: 50.0 mg/kg/injection, schedule: Q04DX003 (ip), vehicle: saline with Tween-80 109 % of control | dose: 100.0 mg/kg/injection, schedule: Q01DX009 (ip), vehicle: saline with Tween-80 95 % of control | dose: 100.0 mg/kg/injection, schedule: Q04DX003 (ip), vehicle: saline with Tween-80 109 % of control

c1ccc2nc(C[n+]3cccc4ccccc43)ccc2c1
inactive: dose: 3.12 mg/kg/injection, schedule: Q01DX005 (ip), vehicle: saline 105 % of control | dose: 6.25 mg/kg/injection, schedule: Q01DX005 (ip), vehicle: saline 106 % of control | dose: 12.5 mg/kg/injection, schedule: Q01DX005 (ip), vehicle: saline 109 % of control

O=C1CC2(C(=O)O1)c1ccccc1-c1ccccc12
inactive: [4] 111 % of control | [5] 105 % of control | [6] 112 % of control

CCCCCCCCCCCC#CC(=O)OC
inactive: [12] 105 % of control | [13] 103 % of control | dose: 200.0 mg/kg/injection, schedule: Q01DX009 (ip), vehicle: saline 103 % of control

O=C1CCC2CN3CCc4c([nH]c5ccccc45)C3CC2C1 (stereo unspecified)
inactive: [4] 100 % of control | [5] 106 % of control

Source: PubChem BioAssay AID330 (DTP/NCI, 2004)
